Active and inactive are the calls of the source.
Experiments:
Assay type in all cases: functional, cell-based
HeLa [1] = assay: Antiproliferative activity against human HeLa cells at 2 uM after 96 hrs by MTT assay in presence of ferric ion
MCF7 [2] = assay: Antiproliferative activity against human MCF7 cells at 2 uM after 96 hrs by MTT assay in presence of ferric ion
Jurkat [3] = assay: Antiproliferative activity against human Jurkat cells at 2 uM after 96 hrs by MTT assay in presence of ferric ion
HT-1080 [4] = assay: Antiproliferative activity against human HT1080 cells at 2 uM after 96 hrs by MTT assay in presence of ferric ion
A-375 [5] = assay: Antiproliferative activity against human A375 cells at 2 uM after 96 hrs by MTT assay in presence of ferric ion
NCI-N87 [6] = assay: Antiproliferative activity against human NCI-N87 cells at 2 uM after 96 hrs by MTT assay in presence of ferric ion
PANC-1 [7] = assay: Antiproliferative activity against human PANC1 cells at 2 uM after 96 hrs by MTT assay in presence of ferric ion
A549 [8] = assay: Antiproliferative activity against human A549 cells at 2 uM after 96 hrs by MTT assay in presence of cobalt ion
Bel-7402 [9] = assay: Antiproliferative activity against human Bel7402 cells at 2 uM after 96 hrs by MTT assay in presence of cobalt ion
HepG2 [10] = assay: Antiproliferative activity against human HepG2 cells at 2 uM after 96 hrs by MTT assay in presence of cobalt ion
HeLa [11] = assay: Antiproliferative activity against human HeLa cells at 2 uM after 96 hrs by MTT assay in presence of cobalt ion
MCF7 [12] = assay: Antiproliferative activity against human MCF7 cells at 2 uM after 96 hrs by MTT assay in presence of cobalt ion
Jurkat [13] = assay: Antiproliferative activity against human Jurkat cells at 2 uM after 96 hrs by MTT assay in presence of cobalt ion
HT-1080 [14] = assay: Antiproliferative activity against human HT1080 cells at 2 uM after 96 hrs by MTT assay in presence of cobalt ion
A-375 [15] = assay: Antiproliferative activity against human A375 cells at 2 uM after 96 hrs by MTT assay in presence of cobalt ion
NCI-N87 [16] = assay: Antiproliferative activity against human NCI-N87 cells at 2 uM after 96 hrs by MTT assay in presence of cobalt ion
PANC-1 [17] = assay: Antiproliferative activity against human PANC1 cells at 2 uM after 96 hrs by MTT assay in presence of cobalt ion
A549 [18] = assay: Antiproliferative activity against human A549 cells at 2 uM after 96 hrs by MTT assay in presence of zinc ion
Bel-7402 [19] = assay: Antiproliferative activity against human Bel7402 cells at 2 uM after 96 hrs by MTT assay in presence of zinc ion
HepG2 [20] = assay: Antiproliferative activity against human HepG2 cells at 2 uM after 96 hrs by MTT assay in presence of zinc ion
HeLa [21] = assay: Antiproliferative activity against human HeLa cells at 2 uM after 96 hrs by MTT assay in presence of zinc ion
MCF7 [22] = assay: Antiproliferative activity against human MCF7 cells at 2 uM after 96 hrs by MTT assay in presence of zinc ion
Jurkat [23] = assay: Antiproliferative activity against human Jurkat cells at 2 uM after 96 hrs by MTT assay in presence of zinc ion
HT-1080 [24] = assay: Antiproliferative activity against human HT1080 cells at 2 uM after 96 hrs by MTT assay in presence of zinc ion
A-375 [25] = assay: Antiproliferative activity against human A375 cells at 2 uM after 96 hrs by MTT assay in presence of zinc ion
NCI-N87 [26] = assay: Antiproliferative activity against human NCI-N87 cells at 2 uM after 96 hrs by MTT assay in presence of zinc ion
PANC-1 [27] = assay: Antiproliferative activity against human PANC1 cells at 2 uM after 96 hrs by MTT assay in presence of zinc ion
A549 [28] = assay: Antiproliferative activity against human A549 cells at 2 uM after 96 hrs by MTT assay in presence of manganese ion
Bel-7402 [29] = assay: Antiproliferative activity against human Bel7402 cells at 2 uM after 96 hrs by MTT assay in presence of manganese ion
HepG2 [30] = assay: Antiproliferative activity against human HepG2 cells at 2 uM after 96 hrs by MTT assay in presence of manganese ion
HeLa [31] = assay: Antiproliferative activity against human HeLa cells at 2 uM after 96 hrs by MTT assay in presence of manganese ion
MCF7 [32] = assay: Antiproliferative activity against human MCF7 cells at 2 uM after 96 hrs by MTT assay in presence of manganese ion
Jurkat [33] = assay: Antiproliferative activity against human Jurkat cells at 2 uM after 96 hrs by MTT assay in presence of manganese ion
HT-1080 [34] = assay: Antiproliferative activity against human HT1080 cells at 2 uM after 96 hrs by MTT assay in presence of manganese ion
A-375 [35] = assay: Antiproliferative activity against human A375 cells at 2 uM after 96 hrs by MTT assay in presence of manganese ion
NCI-N87 [36] = assay: Antiproliferative activity against human NCI-N87 cells at 2 uM after 96 hrs by MTT assay in presence of manganese ion
PANC-1 [37] = assay: Antiproliferative activity against human PANC1 cells at 2 uM after 96 hrs by MTT assay in presence of manganese ion
Bel-7402 [38] = assay: Antiproliferative activity against human Bel7402 cells at 2 uM after 96 hrs by MTT assay in presence of 1 uM of ferrous ion

Measured: Activity

Cc1cc2c(cc(O)c1=O)[C@@]13CCCC(C)(C)[C@@H]1C[C@@H]2OC3 [MILTIPOLONE]
active: all assays above

Source: ChEMBL document CHEMBL1759870, “Identification, structural properties and chelating capacity of miltipolone as a broad-spectrum inhibitor to cancer cells” (Eur J Med Chem, 2011)
